Experimental data taken from patent US10208288B2, “Differentiation of human embryonic stem cells into pancreatic endocrine cells” (Janssen Biotech, Inc., priority 2012, dated 2019).

System: cells of the human embryonic stem cell line H1 differentiated to stage 6
Experiment: Immunostaining for NKX2.2 in stage 6 cultures
Format: cell-based
Details: 10 μM at stage 6, immunostaining; in control cultures NKX2.2+ cells distributed uniformly
Method: Cells of the human embryonic stem cell line H1 (hESC H1, passage 40) were seeded as single cells at 1×10^5 cells/cm^2 on MATRIGEL™ (1:30 dilution; BD Biosciences, NJ) coated dishes in mTeSR®1 media (StemCell Technologies, Vancouver, Canada) supplemented with 10 μM of Y27632. Forty-eight hours post seeding, cultures were washed in incomplete PBS (phosphate buffered saline without Mg or Ca). Cultures were differentiated into pancreatic endoderm/endocrine lineages as follows: • a) Stage 1 (Definitive Endoderm (DE)—3 days): Cells were cultured for one day in stage 1 media (see Example 1, above). Cells were then cultured for an additional day in MCDB-131 medium supplemented with 0.1% fatty acid-free BSA, 0.0012 g/ml sodium bicarbonate, 1× GlutaMax™, 4.5 mM D-Glucose, 100 ng/ml GDF8, and 0.1 μM MCX compound. […]

## CCCCCCCCCCCCC/C=C/[C@@H](O)[C@@H](N)COP(=O)(O)O [S1P, sphingosine-1-phosphate]
  NKX2.2+ cells in endocrine clusters: enriched for NKX2.2+ cells
